Results as given in ChEMBL document CHEMBL5380875, “Discovery of a Potent and Oral Available Complex I OXPHOS Inhibitor That Abrogates Tumor Growth and Circumvents MEKi Resistance” (J Med Chem, 2023).
Each block holds one molecule with its values, some of them ahead of it.

What was measured:
NCI-H460 [1] = experiment: Inhibition of mitochondrial complex I NADH-ubiquinone oxidoreductase in human NCI-H460 cells at 1 uM incubated for 12 hrs by seahorse XF96 metabolic flux analyzer relative to control; assay type: cell-based
NCI-H460 [2] = experiment: Inhibition of mitochondrial complex II in human NCI-H460 cells at 1 uM incubated for 12 hrs by seahorse XF96 metabolic flux analyzer relative to control; assay type: cell-based
NCI-H460 [3] = experiment: Inhibition of mitochondrial complex III in human NCI-H460 cells at 1 uM incubated for 12 hrs by seahorse XF96 metabolic flux analyzer relative to control; assay type: cell-based
NCI-H460 [4] = experiment: Inhibition of mitochondrial complex IV in human NCI-H460 cells at 1 uM incubated for 12 hrs by seahorse XF96 metabolic flux analyzer relative to control; assay type: cell-based
NCI-H460 [5] = experiment: Inhibition of mitochondrial complex I NADH-ubiquinone oxidoreductase in human NCI-H460 cells assessed as reduction in NAD+/NADH ratio at 1 uM incubated for 12 hrs by WST-8 method relative to control; assay type: cell-based
NCI-H358 = experiment: Antiproliferative activity against human NCI-H358 cells with low-OXPHOS assessed as reduction in cell viability incubated for 5 days by CellTiter 96 cell proliferation assay; assay type: functional, cell-based; conditions: NCI-H358, 120 h
NCI-H460 [6] = experiment: Antiproliferative activity against human NCI-H460 cells with high-OXPHOS assessed as reduction in cell viability incubated for 5 days by CellTiter 96 cell proliferation assay; assay type: functional, cell-based; conditions: NCI-H460, 120 h

Compound: CCN1CCN(C(=O)c2nnn(Cc3ccc(C(=O)Nc4ccc(C(F)(F)F)cc4)nc3)c2C)CC1
inhibition (NCI-H460 [1]): -4.1%

Compound: Cc1c(C(=O)N2CCN(Cc3ccc(OCC(F)(F)F)cc3)CC2)nnn1Cc1ccc(C(=O)NCC(C)C)nc1
inhibition (NCI-H460 [1]): 5.6%

Compound: Cc1c(C(=O)N2CCN(Cc3ccc(OCC(F)(F)F)cc3)CC2)nnn1Cc1ccc(C(=O)NC2CCOCC2)nc1
inhibition (NCI-H460 [1]): 10.5%

Compound: CCNC(=O)c1ccc(Cn2nnc(C(=O)N3CCN(Cc4ccc(OCC(F)(F)F)cc4)CC3)c2C)cn1
inhibition (NCI-H460 [1]): 36.3%

Compound: Cc1c(C(=O)N2CCN(S(C)(=O)=O)CC2)nnn1Cc1ccc(C(=O)Nc2ccc(C(F)(F)F)cc2)nc1
inhibition (NCI-H460 [1]): 20.4%

Compound: COc1ccc(NC(=O)c2ccc(Cn3nnc(C(=O)N4CCN(Cc5ccc(OCC(F)(F)F)cc5)CC4)c3C)cn2)cc1
inhibition (NCI-H460 [1]): 49.2%

Compound: Cc1c(C(=O)N2CCN(Cc3ccc(Cl)cc3)CC2)nnn1Cc1ccc(C(=O)Nc2ccc(C(F)(F)F)cc2)nc1
inhibition (NCI-H460 [1]): 20.4% | inhibition (NCI-H460 [2]): 6.8% | inhibition (NCI-H460 [3]): 3.5% | inhibition (NCI-H460 [4]): 8.9%

IC50 (NCI-H358): > 1000 nM | IC50 (NCI-H460 [6]): 7.8 nM
Compound: Cc1c(C(=O)N2CCN(Cc3ccc(C(C)(C)C)cc3)CC2)nnn1Cc1ccc(C(=O)Nc2ccc(C(F)(F)F)cc2)nc1
inhibition (NCI-H460 [5]): 73.2% | inhibition (NCI-H460 [1]): 50.5% | inhibition (NCI-H460 [2]): -0.9% | inhibition (NCI-H460 [3]): 17.8% | inhibition (NCI-H460 [4]): 12.2%

IC50 (NCI-H358): > 1000 nM | IC50 (NCI-H460 [6]): 7.6 nM
Compound: Cc1c(C(=O)N2CCN(Cc3ccc(OCC(F)(F)F)cc3)CC2)nnn1Cc1ccc(C(=O)Nc2ccc(Cl)cc2)nc1
inhibition (NCI-H460 [5]): 72.5% | inhibition (NCI-H460 [1]): 60.1% | inhibition (NCI-H460 [2]): 13.5% | inhibition (NCI-H460 [3]): 30.3% | inhibition (NCI-H460 [4]): 26%

Compound: Cc1c(C(=O)N2CCN(Cc3ccccc3)CC2)nnn1Cc1ccc(C(=O)Nc2ccc(C(F)(F)F)cc2)nc1
inhibition (NCI-H460 [1]): 10.4%

Compound: Cc1c(C(=O)N2CCN(Cc3ccc(OC(F)(F)F)cc3)CC2)nnn1Cc1ccc(C(=O)Nc2ccc(C(F)(F)F)cc2)nc1
inhibition (NCI-H460 [1]): 50.5%

Compound: Cc1nnn(Cc2ccc(C(=O)Nc3ccc(C(F)(F)F)cc3)nc2)c1C(=O)N1CCN(Cc2ccc(OCC(F)(F)F)cc2)CC1
inhibition (NCI-H460 [1]): 15.7%

Compound: CCc1c(C(=O)N2CCN(Cc3ccc(OCC(F)(F)F)cc3)CC2)nnn1Cc1ccc(C(=O)Nc2ccc(C(F)(F)F)cc2)nc1
inhibition (NCI-H460 [1]): 42.6%

Compound: Cc1ccc(CN2CCN(C(=O)c3nnn(Cc4ccc(C(=O)Nc5ccc(C(F)(F)F)cc5)nc4)c3C)CC2)cc1
inhibition (NCI-H460 [1]): 38.1%

IC50 (NCI-H358): 450 nM | IC50 (NCI-H460 [6]): 5.5 nM
Compound: Cc1c(C(=O)N2CCN(Cc3ccc(OCC(F)(F)F)cc3)CC2)nnn1Cc1ccc(C(=O)Nc2ccc(Br)cc2)nc1
inhibition (NCI-H460 [5]): 62.6% | inhibition (NCI-H460 [1]): 66% | inhibition (NCI-H460 [2]): 22.5% | inhibition (NCI-H460 [3]): 33.7% | inhibition (NCI-H460 [4]): 20%

Compound: Cc1c(C(=O)N2CCN(C)CC2)nnn1Cc1ccc(C(=O)Nc2ccc(C(F)(F)F)cc2)nc1
inhibition (NCI-H460 [1]): 11.5% | inhibition (NCI-H460 [2]): -1.2%

Compound: O=C(Nc1ccc(C(F)(F)F)cc1)c1ccc(Cn2nnc(C(=O)N3CCN(Cc4ccc(OCC(F)(F)F)cc4)CC3)c2-c2ccccc2)cn1
inhibition (NCI-H460 [1]): 12.6%
